Measured values as given in patent publication US20250353873A1, “COMPOUNDS AND METHODS FOR MODULATING APOE EXPRESSION” (Ionis Pharmaceuticals, Inc., priority 2024, published 2025).
Strand notation (5' to 3'): a small letter for the sugar, then the base; units joined by * are phosphorothioate-linked, units joined directly phosphodiester-linked; [ ] holds rarer units or linkages, { } end groups; capitals alone tell only the bases. [ms] = mesyl phosphoramidate linkage; e = 2'-O-(2-methoxyethyl) (MOE); k = constrained ethyl (cEt); [5mC] = 5-methylcytosine; d = 2'-deoxy (DNA)

Columns and labels:
human APOE RNA [1] = assay: Dose-dependent inhibition of human APOE RNA in HepG2 cells, electroporation, 50,000 cells per well, RT-PCR normalized to GAPDH (Example 4, Tables 8-10); format: cell-based; conditions: for APOE RNA (% UTC) 1,280 nM: 24-hour treatment, 1,280 nM; for APOE RNA (% UTC) 3,200 nM: 24-hour treatment, 3,200 nM; for APOE RNA (% UTC) 8,000 nM: 24-hour treatment, 8,000 nM; for APOE RNA (% UTC) 20,000 nM: 24-hour treatment, 20,000 nM
Outline: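 Readout is percent APOE RNA versus untreated controls, measured by RT-PCR (primer probe set RTS3073) and normalized to human GAPDH. Modified oligonucleotides were delivered by electroporation at varying doses into HepG2 cells plated at 50,000 per well.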

human APOE RNA [2] = assay: Activity in APOE C57BL/6NTac-Apoeem7250 knock-in mice, single ICV bolus, 4 weeks (Example 10); format: in vivo; conditions: single ICV bolus 300 μg, 4 weeks post treatment, normalized to mouse Ppia
Outline: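 Human APOE RNA, quantified by real-time RT-PCR with RTS3073 and normalized to mouse Ppia, was read in cortical brain and spinal cord 4 weeks post dosing. Dosing was a single ICV bolus of 300 μg per knock-in mouse; values are % of PBS-treated animals.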

human APOE RNA [3] = assay: Activity in APOE C57BL/6NTac-Apoeem7250 knock-in mice, single ICV bolus, 8 weeks (Example 11); format: in vivo; conditions: single ICV bolus 300 μg, 8 weeks post treatment, normalized to mouse Ppia
Outline: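 Cortical and spinal cord human APOE RNA quantified by RT-qPCR 8 weeks after a single 300 μg ICV dose in knock-in mice, Ppia-normalized. Values are percent of levels in PBS-treated animals.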

human APOE RNA [4] = assay: Activity in APOE C57BL/6NTac-Apoeem7250 knock-in mice, single ICV bolus, 16 weeks (Example 12); format: in vivo; conditions: single ICV bolus 300 μg, 16 weeks post treatment, normalized to mouse Ppia
Outline: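 A single 300 μg intracerebroventricular dose was given, with PBS-treated mice as reference; cortical and spinal cord tissue was taken 16 weeks later. RT-qPCR quantified human APOE RNA, Ppia-normalized, expressed relative to PBS animals (% control).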

human APOE RNA [5] = assay: Activity in APOE C57BL/6NTac-Apoeem7250 knock-in mice, single ICV bolus, 20 weeks (Example 13); format: in vivo; conditions: single ICV bolus 300 μg, 20 weeks post treatment, normalized to mouse Ppia
Outline: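 Cortical and spinal cord RNA was assayed by real-time RT-PCR for human APOE, normalized to mouse Ppia and reported as percent of PBS controls. Tissue was taken twenty weeks after one 300 μg intracerebroventricular bolus in APOE knock-in mice, 4 per group.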

[6] = HepG2 cells, electroporation, 24-hour treatment, 5 nM, Table 8
[7] = HepG2 cells, electroporation, 24-hour treatment, 13 nM, Table 8
[8] = HepG2 cells, electroporation, 24-hour treatment, 33 nM, Table 8
[9] = HepG2 cells, electroporation, 24-hour treatment, 82 nM, Table 8
[10] = HepG2 cells, electroporation, 24-hour treatment, 205 nM, Table 8
[11] = HepG2 cells, electroporation, 24-hour treatment, 512 nM, Table 8
[12] = HepG2 cells, electroporation, Table 8
[13] = reduction of human APOE RNA, HepG2 cells, electroporation, 24-hour treatment, Table 8
[14] = 5 nM, HepG2, electroporation, 16-hour treatment
[15] = 13 nM, HepG2, electroporation, 16-hour treatment
[16] = 33 nM, HepG2, electroporation, 16-hour treatment
[17] = 82 nM, HepG2, electroporation, 16-hour treatment
[18] = 205 nM, HepG2, electroporation, 16-hour treatment
[19] = 512 nM, HepG2, electroporation, 16-hour treatment
[20] = 1,280 nM, HepG2, electroporation, 16-hour treatment
[21] = 3,200 nM, HepG2, electroporation, 16-hour treatment
[22] = 8,000 nM, HepG2, electroporation, 16-hour treatment
[23] = 20,000 nM, HepG2, electroporation, 16-hour treatment
[24] = HepG2, electroporation, 16-hour treatment

Row | Substance | APOE RNA (% UTC) 5 nM (human APOE RNA [1]; [6]) [% UTC] | APOE RNA (% UTC) 13 nM (human APOE RNA [1]; [7]) [% UTC] | APOE RNA (% UTC) 33 nM (human APOE RNA [1]; [8]) [% UTC] | APOE RNA (% UTC) 82 nM (human APOE RNA [1]; [9]) [% UTC] | APOE RNA (% UTC) 205 nM (human APOE RNA [1]; [10]) [% UTC] | APOE RNA (% UTC) 512 nM (human APOE RNA [1]; [11]) [% UTC] | APOE RNA (% UTC) 1,280 nM (human APOE RNA [1]; [12]) [% UTC] | APOE RNA (% UTC) 3,200 nM (human APOE RNA [1]; [12]) [% UTC] | APOE RNA (% UTC) 8,000 nM (human APOE RNA [1]; [12]) [% UTC] | APOE RNA (% UTC) 20,000 nM (human APOE RNA [1]; [12]) [% UTC] | IC50 (human APOE RNA [1]; [13]) [nM] | APOE RNA (% control) Cortex (human APOE RNA [2]) [% control] | APOE RNA (% control) Spinal Cord (human APOE RNA [2]) [% control] | APOE RNA (% control) Cortex (human APOE RNA [3]) [% control] | APOE RNA (% control) Spinal Cord (human APOE RNA [3]) [% control] | APOE RNA (% control) Cortex (human APOE RNA [4]) [% control] | APOE RNA (% control) Spinal Cord (human APOE RNA [4]) [% control] | APOE RNA (% control) Cortex (human APOE RNA [5]) [% control] | APOE RNA (% control) Spinal Cord (human APOE RNA [5]) [% control] | further results
1 | 1778115: modified oligonucleotide complementary to human APOE RNA (eA*e[5mC]eTeTkGkG*dT*dG[ms]dA[ms]dA*dT*d[5mC]*dT*dT*dT*dA[ms]eTeT*eA*eA; antisense) [compound 1778115] | 76 | 75 | 73 | 85 | 72 | 43 | 38 | 29 | 32 | 6 | 530 | 37 | 66 | 46 | 27 | 44 | 28 | 77 | 28 | –
2 | 1757574 (eA*e[5mC]eTeT*eG*eG*dT*dG[ms]dA[ms]dA[ms]dT*d[5mC]*dT*dT*dT*dA[ms]kT*kT*eA*eA; antisense) [Compound 1757574] | – | – | – | – | – | – | – | – | – | – | – | 43 | 32 | 44 | 21 | 55 | 22 | 60 | 68 | APOE RNA (% UTC) (human APOE RNA [1]; [14]): 90 % UTC; APOE RNA (% UTC) (human APOE RNA [1]; [15]): 80 % UTC; APOE RNA (% UTC) (human APOE RNA [1]; [16]): 85 % UTC; APOE RNA (% UTC) (human APOE RNA [1]; [17]): 78 % UTC; APOE RNA (% UTC) (human APOE RNA [1]; [18]): 93 % UTC; APOE RNA (% UTC) (human APOE RNA [1]; [19]): 66 % UTC; APOE RNA (% UTC) (human APOE RNA [1]; [20]): 47 % UTC; APOE RNA (% UTC) (human APOE RNA [1]; [21]): 28 % UTC; APOE RNA (% UTC) (human APOE RNA [1]; [22]): 19 % UTC; APOE RNA (% UTC) (human APOE RNA [1]; [23]): 20 % UTC; IC50 (human APOE RNA [1]; [24]): 1170 nM
3 | 1778114: modified oligonucleotide complementary to human APOE RNA (eA*e[5mC]eTeTkG*kG*dT*dG[ms]dA[ms]dA*dT*d[5mC]*dT*dT*dT*dA[ms]eTeT*eA*eA; antisense) [compound 1778114] | 78 | 82 | 78 | 78 | 67 | 45 | 42 | 20 | 11 | 7 | 430 | 37 | 57 | 47 | 32 | 52 | 27 | 56 | 26 | –
4 | 1778123: modified oligonucleotide complementary to human APOE RNA (eA*e[5mC]eTeTeG*eG*dT*dG[ms]dA[ms]dA*dT*d[5mC]*dT*dT*dT*dA[ms]kTkT*eA*eA; antisense) [compound 1778123] | 79 | 91 | 84 | 76 | 55 | 51 | 25 | 11 | 6 | 5 | 320 | 37 | 59 | 49 | 29 | 54 | 31 | 77 | 36 | –
5 | 1778127: modified oligonucleotide complementary to human APOE RNA (eA*e[5mC]eTeTkGkG*dT*dG[ms]dA[ms]dA*dT*d[5mC]*dT*dT*dT*dA[ms]kTeT[ms]eA[ms]eA; antisense) [compound 1778127] | 98 | 88 | 85 | 82 | 55 | 31 | 30 | 16 | 14 | 4 | 310 | 32 | 53 | 28 | 14 | 48 | 25 | 57 | 43 | –
6 | 1778129: modified oligonucleotide complementary to human APOE RNA (eA*e[5mC]eTeTeG*kG*dT*dG[ms]dA[ms]dA*dT*d[5mC]*dT*dT*dT*dA[ms]kT*kT*eA*eA; antisense) [compound 1778129] | 124 | 105 | 110 | 77 | 60 | 44 | 29 | 9 | 14 | 2 | 410 | 25 | 47 | 19 | 9 | 34 | 14 | 52 | 24 | –
7 | 1757571 (eA*e[5mC]eTeT*eG*kG*dT*dG[ms]dA[ms]dA[ms]dT*d[5mC]*dT*dT*dT*dA[ms]eT*eT*eA*eA; antisense) [Compound 1757571] | – | – | – | – | – | – | – | – | – | – | – | 48 | 35 | 66 | 33 | 47 | 26 | 53 | 73 | APOE RNA (% UTC) (human APOE RNA [1]; [14]): 68 % UTC; APOE RNA (% UTC) (human APOE RNA [1]; [15]): 86 % UTC; APOE RNA (% UTC) (human APOE RNA [1]; [16]): 98 % UTC; APOE RNA (% UTC) (human APOE RNA [1]; [17]): 62 % UTC; APOE RNA (% UTC) (human APOE RNA [1]; [18]): 103 % UTC; APOE RNA (% UTC) (human APOE RNA [1]; [19]): 38 % UTC; APOE RNA (% UTC) (human APOE RNA [1]; [20]): 26 % UTC; APOE RNA (% UTC) (human APOE RNA [1]; [21]): 24 % UTC; APOE RNA (% UTC) (human APOE RNA [1]; [22]): 14 % UTC; APOE RNA (% UTC) (human APOE RNA [1]; [23]): 11 % UTC; IC50 (human APOE RNA [1]; [24]): 550 nM
